In patent publication US8834858B2, “Treatment for dyslipidemia” (Solvotrin Therapeutics Ltd., priority 2011, dated 2014):
Read-outs that look alike come from different tables or passages of the source.

Experiments:
[1] = crystalline nicotinic acid (>1 g), cited from earlier work
serum glucose = test: NHP crossover study: serum glucose
Experimental: (§1) The primary study endpoint is change in plasma LDL cholesterol and Apolipoprotein B at 48 hours. An aliquot of 300 μL of serum transferred to a cryovial and was immediately placed in a freezer set to maintain −70° C. until analyzed for clinical chemistry (LDL cholesterol, Apolipoprotein B, TGs, glucose) using a standard Roche Analyser.

prostaglandin D2 (PGD2) = test: NHP crossover study: serum PGD2; format: in vivo, cynomolgus monkeys; conditions: over 24 hours post dosing, equimolar doses
Experimental: For TxB2, an additional 0.4 mL whole blood aliquots were placed in siliconised glass tubes to induce a clotting response and the supernatants were analysed for TxB2 using a Luminex ELISA immunoassay. PGD2 was analysed from serum directly using a Luminex ELISA immunoassay.

[2] = cited from earlier work
[3] = tested on: LDL cholesterol, Apolipoprotein B, TGs; test: NHP crossover study: clinical chemistry (LDL-C, ApoB, TG)
Experimental: as §1

LDL, HDL = conditions: cited from earlier work
[4] = cited from earlier work; remark: listed apart in the source
blood glucose = conditions: cited from earlier work; for patients with diabetes requiring a change in hypoglycemic therapy: in vivo
[5] = 8 and 14 months, on statin therapy; cited from earlier work
[6] = cited from earlier work; remark: listed apart in the source
[7] = secondary prevention; cited from earlier work
[8] = tested on: LDL cholesterol, HDL cholesterol, TG; conditions: adult dyslipidemias; cited from earlier work
PGD2 receptor-1 (DP1) = PGD2 receptor-1 (DP1) (Homo sapiens, UniProt Q13258); conditions: nicotinic acid without vs with added laropiprant (Kush 2009); cited from earlier work
PGD2 receptor-1 (DP1), sequence (Q13258 whole entry): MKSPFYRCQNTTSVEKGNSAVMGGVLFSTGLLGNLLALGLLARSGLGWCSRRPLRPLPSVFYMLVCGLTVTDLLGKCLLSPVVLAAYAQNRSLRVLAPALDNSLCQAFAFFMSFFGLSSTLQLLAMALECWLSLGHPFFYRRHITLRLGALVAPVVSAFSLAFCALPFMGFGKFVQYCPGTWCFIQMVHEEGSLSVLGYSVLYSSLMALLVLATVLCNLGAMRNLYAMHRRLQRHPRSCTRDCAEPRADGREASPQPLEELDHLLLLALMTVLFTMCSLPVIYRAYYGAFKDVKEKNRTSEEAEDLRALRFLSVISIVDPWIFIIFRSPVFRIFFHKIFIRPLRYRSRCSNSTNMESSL

[9] = baseline to 48 hours, 28 mg/kg niacin equivalents daily oral gavage, n=6

O=C(O)c1cccnc1 [nicotinic acid]
half life ([1]; oral): about 60 minutes | time to peak plasma concentrations ([1]; oral): 30 to 60 min | oral absorption [1]: almost completely absorbed | serum glucose change from baseline (serum glucose; 1 hour post dose): significant decrease | serum glucose after feeding (serum glucose; following animal feeding between 1-2 hours post dose): rebound to baseline levels | PGD2 AUC (prostaglandin D2 (PGD2)): 128.3 ± 38.2 ng·h/mL | reduction of incidence of non-fatal re-infarction / risk of myocardial infarction ([2]; five year follow up, men with history of MI): 27% | decrease in all-cause (long-term) mortality ([2]; mean follow-up of 15 years): 11% | TG levels at 48 hours (follow up) ([3]; 48 hours): 64 ± 31 mg/dL | TG levels at baseline ([3]; baseline): 50 ± 10 mg/dL | increase in TG levels (non-significant) ([3]; baseline to 48 hours): 23.3% | reduction from baseline in LDL cholesterol [3, 9]: 33% | reduction from baseline in apolipoprotein B [3, 9]: 24% | additional lowering of LDL levels (LDL, HDL; 1 g/day added to stable statin): 8% | additional raise of HDL levels (LDL, HDL; 1 g/day added to stable statin): 24% | additional lowering of LDL (LDL, HDL; 2 g/day added to stable statin): 20% | additional raise of HDL cholesterol levels (LDL, HDL; 2 g/day added to stable statin): 27% | HDL increase ([4]; 1,000 mg once daily added to simvastatin): 21% | carotid intima-media thickness (CIMT) ([4]; after 12 months): unchanged | increase in fingerstick glucose levels (blood glucose; doses <2.5 g): 4% to 5 | patients with diabetes requiring a change in hypoglycemic therapy (blood glucose): 10-35% | patients with diabetes requiring a change in hypoglycemic therapy (blood glucose; listed as Nicotinic acid): 10% to 35 | CIMT [5]: significant reduction | patients discontinuing treatment because of flushing ([6]; Jacobson 2010): 5-20% | users experiencing mild or moderate flushing ([6]; review of clinical trials): > 60% | coronary artery revascularization, non-fatal MI, stroke and TIA [7]: significant reduction | HDL cholesterol [8]: +15 to +35% | LDL cholesterol [8]: −5 to −25% | TG [8]: −20 to −50% | rate of moderate/severe flushing (PGD2 receptor-1 (DP1)): 50%
